In EP4647433A1, “SHP2 INHIBITOR AND USES THEREOF” (Kanaph Therapeutics Inc., priority 2023, dated 2024):
Like-named read-outs stand apart in the source and are kept apart here.

Key:
SHP2 = target: T1, SHP2 (Homo sapiens, UniProt Q06124); assay: Phosphatase assay (PTPase assay, DiFMUP substrate); assay type: biochemical
T1 construct: SHP2 (full length, diluted to 100 pM final concentration in reaction buffer, BPS bioscience, US); purchased BPS bioscience, US
T1 sequence (Q06124 1-593): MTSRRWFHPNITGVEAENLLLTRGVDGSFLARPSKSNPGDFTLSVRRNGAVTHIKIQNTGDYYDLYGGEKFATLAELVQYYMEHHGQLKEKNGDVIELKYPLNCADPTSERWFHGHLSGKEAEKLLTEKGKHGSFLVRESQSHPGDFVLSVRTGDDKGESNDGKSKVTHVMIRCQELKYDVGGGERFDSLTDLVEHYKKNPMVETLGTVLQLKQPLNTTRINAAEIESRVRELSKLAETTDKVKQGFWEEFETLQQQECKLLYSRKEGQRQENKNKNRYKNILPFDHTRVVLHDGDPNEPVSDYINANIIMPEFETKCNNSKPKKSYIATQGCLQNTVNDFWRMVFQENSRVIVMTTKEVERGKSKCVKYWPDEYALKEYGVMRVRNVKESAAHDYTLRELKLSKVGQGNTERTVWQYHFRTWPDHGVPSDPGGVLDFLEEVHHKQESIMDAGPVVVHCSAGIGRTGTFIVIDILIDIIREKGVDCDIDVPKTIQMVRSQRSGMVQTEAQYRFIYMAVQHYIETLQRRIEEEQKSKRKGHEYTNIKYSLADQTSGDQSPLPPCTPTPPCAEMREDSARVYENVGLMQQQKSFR
Procedure: IC50 values were measured using 6,8-difluoro-4-methylumbelliferyl phosphate (DiFMUP) as a substrate. The reaction was performed in a 384-well plate, and fluorescence measurement values were obtained using an EnVision plate reader from PerkinElmer.
SHP2 (full length, diluted to 100 pM final concentration in reaction buffer, BPS bioscience, US) was incubated with the SHP2 activating peptide in reaction buffer (60 mM HEPES (pH 7.2), 75 mM NaCl, 75 mM KCl, 1 mM EDTA, 5 mM DTT, 0.05% P-20) for 30 minutes to activate SHP2. After activation, DMSO [1% (V/V) or the compound according to the Examples (concentration ranging from 0.6 nM to 10 µM)] was added. As a positive control group, the selective SHP2 inhibitors SHP099 (6-(4-amino-4-methylpiperidin-1-yl)-3-(2,3-dichlorophenyl)pyrazin-2-amine, FOCUS bioscience, Austrailia; concentration ranging from 0.6 nM to 10 µM) and TNO155 ((3S,4S)-8-(6-amino-5-((2-amino-3-chloropyridin-4-yl)thio)pyrazin-2-yl)-3-methyl-2-oxa-8-azaspiro[4.5]decan-4-amine, Chemietek, US; concentration ranging from 0.6 nM to 10 µM) were used. [drawing 184]
DiFMUP (80 µM) was added to the reaction and incubated for a total of 2 hours to allow for the reaction to proceed. Thereafter, fluorescence (340 nm excitation, 450 nm emission) values were measured. IC50 values were obtained using Graphad's Prism from the measured values depending on the concentration.
In the phosphatase assay (PTPase assay), when an IC50 value was 100 nM or more, + was indicated, when an IC50 value was 3 nM or more and less than 100 nM, ++ was indicated, and when an IC50 value was less than 3 nM, +++ was indicated.

phospho-ERK = phospho-ERK assay (AlphaLisa) in H358 cells; assay type: cell-based; details: Homo sapiens, NCI-H358, 1.5 hours incubation, read-out: pERK assay (IC50)
Procedure: H358 [20,000 cell/well] was contained in 40 µL of the cell culture solution (RPMI, 10% FBS, penicillin, streptomycin) and placed on a 384-well plate. After 24 hours, the serially diluted compound according to the Examples (concentration of minimum 0.13 nM, maximum 10 µM) was contained in 10 µL of the cell culture solution, put into wells containing cells, and incubated in a cell incubator for 1.5 hours. As a positive control group, the selective SHP2 inhibitor, TNO155 (Chemietek, US; concentration ranging from 0.13 nM to 10 µM) was used.
Thereafter, phospho-ERK was labeled using an AlphaLisa system from PerkinElmer according to the manufacturer's instructions, and then fluorescence (680 nm excitation wavelength, 615 nm emission wavelength) values were measured using a Varioskan equipment from Thermo. IC50 values were obtained using Graphad's Prism from the measured values depending on the concentration.
Intracellular SHP2 activity can be confirmed by measuring the degree of phosphorylation of ERK (extracellular signal regulated kinase), which represents Ras/Raf/ERK, a downstream signal pathway of SHP2. Inhibition of ERK phosphorylation by SHP2 inhibitors was confirmed through phospho-ERK analysis, which confirmed that the SHP2 inhibitors of the present disclosure have excellent activity in inhibiting ERK phosphorylation mediated by SHP2.

H358 cells = assay: Cell viability (3D spheroid, 3D CellTiter-Glo); assay type: cell-based; details: Homo sapiens, NCI-H358, 120 h; H358 spheroids, 5 days treatment
Procedure: Human non-small cell lung cancer cell line H358 cells were purchased from the Korean Cell Line Bank. Cancer cell lines were cultured in the recommended RPMI-1640 medium supplemented with 10% fetal bovine serum (FBS) and 1% penicillin/streptomycin. Monolayer-cultured cancer cell lines were detached by treatment with Trypsin/EDTA, and 100 µL of cell suspension containing 4 x 10^3 cells was each dispensed into SPL3D™ Cell Floater, 96-well round plate, through cell line counting. After culturing for 72 hours to form spheroid, the cells were individually treated with the compounds according to the Examples, which had been serially diluted (minimum 1.5 nM, maximum 10 µM in concentration), and then cultured in a cell incubator for 5 days. To analyze cell viability, the cells were treated with 50 uL of 3D CellTiter-Glo, stirred for 5 minutes at 500 rpm in a plate shaker from Thermo Fisher Scientific, and incubated for 25 minutes at room temperature. Then, the luminescent values were measured using a Varioskan equipment from Thermo Fisher Scientific. IC50 values were obtained using GraphPad's Prism from the measured values depending on the concentration.
In the cell viability assay, when an IC50 value was 50 nM or more, + was indicated, when an IC50 value was 10 nM or more and less than 50 nM, ++ was indicated, and when an IC50 value was less than 10 nM, +++ was indicated.

[1] = Brain-plasma Pharmacokinetics; details: male, CD-1 (ICR), mouse, brain/plasma, 20 mg/kg
Procedure: Nine male CD-1 mice (ICR mouse) aged 6 to 9 weeks were treated with the compounds according to the Examples at a concentration of 20 mg/kg. 0.025 mL of blood and brain tissue were collected at 1 hour, 8 hours, and 24 hours post-treatment, respectively. The collected blood was placed in an EDTA-K2 tube, centrifuged at 4°C at 3,200 x g for 10 minutes, and the supernatant plasma was collected. The brain tissue samples were collected immediately after euthanizing the CD-1 mice after blood collection and performing cardiac perfusion with cold saline. After collection, the brain tissues were washed with cold saline, wiped and dried, weighed, and homogenized using a homogenization buffer (15 mM PBS (pH 7.4): MeOH = 2:1) at a ratio of 1:3 (1 g of tissue to 3 mL of buffer, dilution ratio 4). Plasma and homogenized brain tissue samples were each transferred to a polypropylene microcentrifuge tube and stored at -60°C or lower. The concentration of compounds distributed in plasma and brain tissue was analyzed using LC-MS/MS, and the distribution in brain tissue compared to plasma was calculated as follows. Brain-to-plasma ratio = AUC(0-t) brain tissue /AUC(0-t) plasma [formula]
In the Brain-plasma Pharmacokinetics assay, when a brain-to-plasma ratio value was 0.05 or more and less than 0.1, + was indicated, when a brain-to-plasma ratio value was 0.1 or more and less than 0.25, ++ was indicated, and when a brain-to-plasma ratio value was more than 0.25, +++ was indicated.

[2] = full length SHP2 100 pM activated with SHP2 activating peptide, DiFMUP 80 µM, 2 hours; read-out: PTPase assay (IC50)

Q: For `CCn1cnc2ccc(Sc3cnc(N4CCC5(CC4)Cc4ncsc4[C@H]5N)cn3)c(Cl)c2c1=O` [Example 3, (S)-6-((5-(6-amino-4,6-dihydrospiro[cyclopenta[d]thiazole-5,4'-piperidin]-1'-yl)pyrazin-2-yl)thio)-5-chloro-3-ethylquinazolin-4(3H)-one], which IC50 (SHP2; [2]) is on record?
A: < 3 nM

Q: And the IC50 (phospho-ERK)?
A: < 45 nM

Q: What about the IC50 (H358 cells) of the same compound?
A: < 10 nM

Q: With `COC(C)Cn1cnc2ccc(Sc3ncc(N4CCC5(CC4)Cc4ccccc4[C@H]5N)nc3N)c(Cl)c2c1=O` (stereo partly drawn) [Example 9, 6-((3-amino-5-((S)-1-amino-1,3-dihydrospiro[indene-2,4'-piperidin]-1'-yl)pyrazin-2-yl)thio)-5-chloro-3-(2-methoxypropyl)quinazolin-4(3H)-one] as the compound, how does the IC50 (SHP2; [2]) read?
A: < 3 nM

Q: What about the IC50 (phospho-ERK) of the same compound?
A: < 45 nM

Q: Which IC50 (SHP2; [2]) does the source give for `CC(C)n1cnc2ccc(Sc3cnc(N4CCC5(CC4)Cc4ncsc4[C@H]5N)cn3)c(Cl)c2c1=O` [Example 4, (S)-6-((5-(6-amino-4,6-dihydrospiro[cyclopenta[d]thiazole-5,4'-piperidin]-1'-yl)pyrazin-2-yl)thio)-5-chloro-3-isopropylquinazolin-4(3H)-one] here?
A: < 3 nM

Q: What about the IC50 (phospho-ERK) of the same compound?
A: < 45 nM

Q: And the IC50 (H358 cells)?
A: < 10 nM

Q: With `Cn1cnc2ccc(Sc3cnc(N4CCC5(CC4)Oc4ccccc4[C@H]5N)cn3)c(Cl)c2c1=O` [Example 51, (R)-6-((5-(3-amino-3H-spiro[benzofuran-2,4'-piperidin]-1'-yl)pyrazin-2-yl)thio)-5-chloro-3-methylquinazolin-4(3H)-one] as the compound, how does the Kp at 24 h [1] read?
A: > 0.25

Q: Which IC50 (SHP2; [2]) does the source give for `N[C@@H]1c2scnc2CC12CCN(c1cnc(Sc3ccc4nc[nH]c(=O)c4c3Cl)cn1)CC2` [Example 1, (S)-6-((5-(6-amino-4,6-dihydrospiro[cyclopenta[d]thiazole-5,4'-piperidin]-1'-yl)pyrazin-2-yl)thio)-5-chloroquinazolin-4(3H)-one] here?
A: < 3 nM

Q: And the IC50 (phospho-ERK)?
A: < 45 nM

Q: Which IC50 (SHP2; [2]) does the source give for `COC(C)(C)C(F)n1cnc2ccc(Sc3cnc(N4CCC5(CC4)CO[C@@H](C)[C@H]5N)cn3)c(Cl)c2c1=O` (stereo partly drawn) [Example 28, 6-((5-((3S,4S)-4-amino-3-methyl-2-oxa-8-azaspiro[4.5]decan-8-yl)pyrazin-2-yl)thio)-5-chloro-3-(1-fluoro-2-methoxy-2-methylpropyl)quinazolin-4(3H)-one] here?
A: < 3 nM

Q: And the IC50 (phospho-ERK)?
A: 45 to 1500 nM

Q: What about the IC50 (H358 cells) of the same compound?
A: 10 to 50 nM

Q: With `Cn1cnc2ccc(Sc3cnc(N4CCC5(CC4)Cc4ncsc4[C@H]5N)cn3)c(Cl)c2c1=O` [Example 2, (S)-6-((5-(6-amino-4,6-dihydrospiro[cyclopenta[d]thiazole-5,4'-piperidin]-1'-yl)pyrazin-2-yl)thio)-5-chloro-3-methylquinazolin-4(3H)-one] as the compound, how does the IC50 (SHP2; read-out: PTPase assay (IC50); full length SHP2 100 pM activated with SHP2 activating peptide, DiFMUP 80 µM, 2 hours) read?
A: < 3 nM

Q: What about the IC50 (phospho-ERK) of the same compound?
A: < 45 nM

Q: And the IC50 (H358 cells)?
A: < 10 nM

Q: For `N[C@@H]1c2ccccc2OC12CCN(c1cnc(Sc3ccc4ncn(-c5ccccc5)c(=O)c4c3Cl)cn1)CC2` [Example 52, (R)-6-((5-(3-amino-3H-spiro[benzofuran-2,4'-piperidin]-1'-yl)pyrazin-2-yl)thio)-5-chloro-3-phenylquinazolin-4(3H)-one], which Kp at 24 h [1] is on record?
A: > 0.25

Q: For `COC(C)(C)Cn1cnc2ccc(Sc3cnc(N4CCC5(CC4)Cc4ccccc4[C@H]5N)nn3)c(Cl)c2c1=O` [Example 34, (S)-6-((3-(1-amino-1,3-dihydrospiro[indene-2,4'-piperidin]-1'-yl)-1,2,4-triazin-6-yl)thio)-5-chloro-3-(2-methoxy-2-methylpropyl)quinazolin-4(3H)-one], which IC50 (SHP2; [2]) is on record?
A: < 3 nM

Q: And the IC50 (H358 cells)?
A: < 10 nM

Q: What about the Kp at 24 h [1] of the same compound?
A: 0.1 to 0.25

Q: With `COC(C)Cn1c(C)nc2ccc(Sc3cnc(N4CCC5(CC4)CO[C@@H](C)[C@H]5N)cn3)c(Cl)c2c1=O` (stereo partly drawn) [Example 39, 6-((5-((3S,4S)-4-amino-3-methyl-2-oxa-8-azaspiro[4.5]decan-8-yl)pyrazin-2-yl)thio)-5-chloro-3-(2-methoxypropyl)-2-methylquinazolin-4(3H)-one] as the compound, how does the IC50 (SHP2; [2]) read?
A: < 3 nM

Q: And the IC50 (phospho-ERK)?
A: 45 to 1500 nM

Q: What about the IC50 (H358 cells) of the same compound?
A: 10 to 50 nM

Q: For `COCCn1cnc2ccc(Sc3ncc(N4CCC5(CC4)Cc4ccccc4[C@H]5N)nc3N)c(Cl)c2c1=O` [Example 8, (S)-6-((3-amino-5-(1-amino-1,3-dihydrospiro[indene-2,4'-piperidin]-1'-yl)pyrazin-2-yl)thio)-5-chloro-3-(2-methoxyethyl)quinazolin-4(3H)-one], which IC50 (SHP2; [2]) is on record?
A: < 3 nM

Q: What about the IC50 (phospho-ERK) of the same compound?
A: < 45 nM

Q: With `C[C@@H]1OCC2(CCN(c3cnc(Sc4ccc5ccn(C)c(=O)c5c4Cl)cn3)CC2)[C@@H]1N` [Example 15, 7-((5-((3S,4S)-4-amino-3-methyl-2-oxa-8-azaspiro[4.5]decan-8-yl)pyrazin-2-yl)thio)-8-chloro-2-methylisoquinolin-1(2H)-one] as the compound, how does the IC50 (SHP2; [2]) read?
A: < 3 nM

Q: What about the IC50 (H358 cells) of the same compound?
A: 10 to 50 nM

Q: What about the Kp at 24 h [1] of the same compound?
A: 0.05 to 0.1

Q: With `CC(C)n1ccc2ccc(Sc3cnc(N4CCC5(CC4)CO[C@@H](C)[C@H]5N)cn3)c(Cl)c2c1=O` [Example 46, 7-((5-((3S,4S)-4-amino-3-methyl-2-oxa-8-azaspiro[4.5]decan-8-yl)pyrazin-2-yl)thio)-8-chloro-2-isopropylisoquinolin-1(2H)-one] as the compound, how does the IC50 (SHP2; [2]) read?
A: < 3 nM

Q: And the IC50 (H358 cells)?
A: 10 to 50 nM

Q: What does the source list for `C[C@@H]1OCC2(CCN(c3cnc(Sc4ccc5ncn(CC6(C)CCOCC6)c(=O)c5c4Cl)cn3)CC2)[C@@H]1N` [Example 23, 6-((5-((3S,4S)-4-amino-3-methyl-2-oxa-8-azaspiro[4.5]decan-8-yl)pyrazin-2-yl)thio)-5-chloro-3-((4-methyltetrahydro-2H-pyran-4-yl)methyl)quinazolin-4(3H)-one]?
A: IC50 (SHP2; [2]): < 3 nM; IC50 (H358 cells): 10 to 50 nM

Q: Which results are given for `Cn1cnc2ccc(Sc3ncc(N4CCC5(CC4)Cc4ccccc4[C@H]5N)nc3N)c(Cl)c2c1=O` [Example 10]?
A: IC50 (SHP2; [2]): < 3 nM; IC50 (phospho-ERK): < 45 nM
